Values of other authors as cited in US20090162416A1, “Polymer implants for timed release of drugs with particular emphasis on ovulation or spermiation of fish” (priority 2007, published 2009).
Non-standard residues stand in square brackets, D forms with d. pGlu = O=C1CC[C@@H](C(=O)O)N1

System: seasonable ripe gravid female catfish
Conditions: 0.45 mg/lb of body weight

-Glp-His-Trp-Ser-Tyr-Gly-Leu-Arg-Pro-ethylamide- ([pGlu]HWSYGLRP-NHEt) [LHRH, nine amino acid synthetic polypeptide used to promote ovulation in catfish]
time to ovulation after single injection: ≤ 12 h
